# Measurements reported in patent US9340510B2, “Tetrahydroisoquinoline derivatives, pharmaceutical compositions and uses thereof” (Boehringer Ingelheim International GmbH, priority 2014, dated 2016).
# Molecular target: human ACC2 (Homo sapiens (Human), UniProt O00763)
# Assay: ACC2 assay: spectrophotometric 384 well assay (coupled lactate dehydrogenase/pyruvate kinase)
# Assay type: biochemical
# Conditions: hACC2 construct lacking the 128 N-terminal amino acids, 25° C., 340 nm
# Protocol: Spectrophotometric 384 Well Assay
# Malonyl CoA formation by acetyl CoA carboxylases is stoichiometrically linked to the consumption of ATP. ACC2 activity is measured in a […] kinetic method measuring ADP generated during the ACC reaction using a coupled lactate dehydrogenase/pyruvate kinase reaction.
# For biological testing, a human ACC2 construct which lacks the 128 amino acids at the N-terminus for increased solubility (nt 385-6966 in Genbank entry AJ575592) is cloned. The protein is then expressed in insect cells using a baculoviral expression system. Protein purification is performed by anion exchange.
# All compounds are dissolved in dimethyl sulfoxide (DMSO) to a concentration of 10 mM.
# Assay reactions are then carried out in 384-well plates, with hACC2 in an appropriate dilution and at final assay concentrations (f.c.) of 100 mM Tris (pH 7.5), 10 mM trisodium citrate, 25 mM KHCO3, 10 mM MgCl2, 0.5 mg/ml BSA, 3.75 mM reduced L-glutathione, 15 U/ml lactate dehydrogenase, 0.5 mM phosphoenolpyruvate, 15 U/ml pyruvate kinase, compounds at different concentrations at final DMSO concentrations of 1%.
# The enzymatic reaction is then started by addition of a mixture of NADH, acetyl Coenzyme A (both […].) and ATP (500 uM f.c.). The decrease of the optical density (slope S) is then determined at 25° C. at a wavelength of 340 nm over 15 minutes in a spectrophotometric reader.
# Each assay microtiter plate contains wells with vehicle instead of compound as controls for the non-inhibited enzyme (100% CTL; ‘HIGH’) and wells without acetyl-CoA as controls for non-specific NADH degradation (0% CTL; ‘LOW’).
# The slope S is used for calculation of % CTL=(S(compound)−S(‘LOW’))/(S(‘HIGH’)−S(‘LOW’))*100. Compounds will give values between 100% CTL (no inhibition) and 0% CTL (complete inhibition).
# For IC50 value determination, the sample slope in the presence of the test compound after subtraction of the low controls (S(compound)−S(‘LOW’)) are used.
# An IC50 value is derived from the compound slopes at different dosages after subtraction of the low controls (S(compound)-S(‘LOW’)) by non-linear regression curve fitting (equation y=(A+((B−A)/(1+((C/x)^D))))).
# Sequence of human ACC2 (O00763 129-2458): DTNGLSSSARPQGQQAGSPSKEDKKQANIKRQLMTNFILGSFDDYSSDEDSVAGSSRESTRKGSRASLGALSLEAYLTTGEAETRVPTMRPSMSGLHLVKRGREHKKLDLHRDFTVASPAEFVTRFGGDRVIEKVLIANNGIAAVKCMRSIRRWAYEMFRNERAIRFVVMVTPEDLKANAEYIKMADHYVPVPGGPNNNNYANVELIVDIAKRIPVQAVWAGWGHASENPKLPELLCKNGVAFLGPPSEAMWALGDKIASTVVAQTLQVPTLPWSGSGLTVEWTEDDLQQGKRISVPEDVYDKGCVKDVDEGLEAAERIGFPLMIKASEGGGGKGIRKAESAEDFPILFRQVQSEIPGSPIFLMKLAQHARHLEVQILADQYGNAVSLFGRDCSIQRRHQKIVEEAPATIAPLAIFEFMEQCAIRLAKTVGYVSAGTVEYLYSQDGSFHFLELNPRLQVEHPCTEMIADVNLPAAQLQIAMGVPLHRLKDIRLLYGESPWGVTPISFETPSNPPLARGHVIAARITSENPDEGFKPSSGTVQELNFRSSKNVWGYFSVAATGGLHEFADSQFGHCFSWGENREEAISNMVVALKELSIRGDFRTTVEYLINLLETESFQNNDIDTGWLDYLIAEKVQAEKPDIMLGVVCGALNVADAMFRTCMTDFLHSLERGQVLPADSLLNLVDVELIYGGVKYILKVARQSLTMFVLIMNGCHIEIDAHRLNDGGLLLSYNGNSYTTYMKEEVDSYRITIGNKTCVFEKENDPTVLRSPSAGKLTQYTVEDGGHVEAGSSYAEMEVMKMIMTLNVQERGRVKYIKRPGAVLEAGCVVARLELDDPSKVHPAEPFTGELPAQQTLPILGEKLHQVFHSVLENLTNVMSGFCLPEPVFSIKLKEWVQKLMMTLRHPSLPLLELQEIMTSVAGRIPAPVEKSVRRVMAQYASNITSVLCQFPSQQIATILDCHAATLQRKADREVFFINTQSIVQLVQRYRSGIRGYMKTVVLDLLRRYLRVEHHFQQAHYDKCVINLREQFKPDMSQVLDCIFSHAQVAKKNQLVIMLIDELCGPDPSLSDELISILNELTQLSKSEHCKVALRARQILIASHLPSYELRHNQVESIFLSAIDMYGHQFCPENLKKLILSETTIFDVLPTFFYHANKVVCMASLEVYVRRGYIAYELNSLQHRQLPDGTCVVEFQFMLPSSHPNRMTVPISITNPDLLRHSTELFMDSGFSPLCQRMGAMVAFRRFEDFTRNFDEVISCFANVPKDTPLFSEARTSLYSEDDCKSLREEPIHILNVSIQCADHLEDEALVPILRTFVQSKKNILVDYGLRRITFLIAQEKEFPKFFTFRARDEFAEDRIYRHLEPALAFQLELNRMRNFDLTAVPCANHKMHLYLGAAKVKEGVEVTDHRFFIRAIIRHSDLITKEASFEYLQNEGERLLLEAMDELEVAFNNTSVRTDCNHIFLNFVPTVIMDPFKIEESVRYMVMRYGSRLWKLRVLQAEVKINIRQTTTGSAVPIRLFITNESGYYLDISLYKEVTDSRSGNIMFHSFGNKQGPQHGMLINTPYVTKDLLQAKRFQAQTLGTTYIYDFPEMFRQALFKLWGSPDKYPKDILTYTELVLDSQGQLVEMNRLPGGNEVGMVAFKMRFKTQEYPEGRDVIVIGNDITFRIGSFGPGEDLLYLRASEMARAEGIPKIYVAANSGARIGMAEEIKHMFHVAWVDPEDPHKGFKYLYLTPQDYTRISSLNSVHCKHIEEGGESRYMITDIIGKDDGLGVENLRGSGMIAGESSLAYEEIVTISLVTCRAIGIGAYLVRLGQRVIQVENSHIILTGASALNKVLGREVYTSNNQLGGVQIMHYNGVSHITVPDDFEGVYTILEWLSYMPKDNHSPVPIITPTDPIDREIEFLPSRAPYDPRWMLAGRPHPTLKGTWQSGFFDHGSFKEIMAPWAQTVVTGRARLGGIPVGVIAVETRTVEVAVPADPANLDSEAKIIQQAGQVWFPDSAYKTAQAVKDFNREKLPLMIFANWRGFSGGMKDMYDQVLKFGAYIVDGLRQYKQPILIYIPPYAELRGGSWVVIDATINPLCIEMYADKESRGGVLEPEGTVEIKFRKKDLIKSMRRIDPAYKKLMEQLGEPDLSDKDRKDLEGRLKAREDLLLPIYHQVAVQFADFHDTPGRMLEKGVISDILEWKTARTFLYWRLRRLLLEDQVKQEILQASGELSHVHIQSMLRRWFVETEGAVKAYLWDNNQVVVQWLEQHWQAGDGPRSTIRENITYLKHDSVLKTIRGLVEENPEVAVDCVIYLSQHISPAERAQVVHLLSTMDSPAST
row,IC50,Structure (SMILES)
1,25 nM,C[C@H](NC(=O)c1cn[nH]c1)c1ccc(CN2CCc3cc(OCC4CC4(F)F)ccc3C2)cc1 (stereo partly shown) [Example 3.010]
2,28 nM,C[C@H](NC(=O)c1cncs1)c1ccc(CN2CCc3cc(OCC4CC4(F)F)ccc3C2)cc1 (stereo partly shown) [Example 3.019]
3,68 nM,C[C@H](NC(=O)c1ccns1)c1ccc(CN2CCc3cc(OCC4CC4(F)F)ccc3C2)cc1 (stereo partly shown) [Example 3.008]
4,806 nM,C[C@H](NC(=O)CC#N)c1ccc(CN2Cc3ccc(OCC4CC4(F)F)cc3C(O)C2)cc1 (stereo partly shown) [Example 2.037]
5,208 nM,C[C@H](NC(=O)c1cnn(C)c1N)c1ccc(CN2CCc3cc(OCC4CC4(F)F)ccc3C2)cc1 (stereo partly shown) [Example 3.018]
6,52 nM,C[C@H](NC(=O)c1ccon1)c1ccc(CN2CCc3cc(OCC4CC4(F)F)ccc3C2)cc1 (stereo partly shown) [Example 3.011]
7,122 nM,Cc1[nH]ncc1C(=O)N[C@@H](C)c1ccc(CN2CCc3cc(OCC4CC4(F)F)ccc3C2)cc1 (stereo partly shown) [Example 3.012]
8,58 nM,CC(=O)Nc1nc(C)c(C(=O)N[C@@H](C)c2ccc(CN3Cc4ccc(OCC5CC5(F)F)cc4C(F)C3)cc2)s1 (stereo partly shown) [Example 3.032]
9,450 nM,C[C@H](NC(=O)CC#N)c1ccc(CN2CC(=O)c3cc(OCC4CC4(F)F)ccc3C2)cc1 (stereo partly shown) [Example 2.04]
10,55 nM,C[C@H](NC(=O)CO)c1ccc(CN2Cc3ccc(OCC4CC4(F)F)cc3C(F)C2)cc1 (stereo partly shown) [Example 2.034]
11,132 nM,C[C@H](O)C(=O)N[C@@H](C)c1ccc(CN2Cc3ccc(OCC4CC4)cc3C(F)C2)cc1 (stereo partly shown) [Example 3.060]
12,26 nM,CCC(=O)Nc1nc(C)c(C(=O)N[C@@H](C)c2ccc(CN3Cc4ccc(OCC5CC5)cc4C(F)C3)cc2)s1 (stereo partly shown) [Example 3.025]
13,162 nM,C[C@H](NC(=O)c1cnn(C)c1Cl)c1ccc(CN2CCc3cc(OCC4CC4(F)F)ccc3C2)cc1 (stereo partly shown) [Example 3.016]
14,28 nM,CC(=O)Nc1nc(C)c(C(=O)N[C@@H](C)c2ccc(CN3CCc4cc(OCC5CC5(F)F)ccc4C3)cc2)s1 (stereo partly shown) [Example 2.020]
15,77 nM,C[C@H](NC(=O)[C@H]1C[C@H](F)C1)c1ccc(CN2Cc3ccc(OCC4CC4(F)F)cc3C(F)C2)cc1 (stereo partly shown) [Example 3.031]
16,130 nM,CC(O)C(=O)N[C@@H](C)c1ccc(CN2CCc3cc(OC[C@@H]4CC4(F)F)ccc3C2)cc1 (stereo partly shown) [Example 2.027]
17,259 nM,CC(=O)Nc1nc(C)c(C(=O)N[C@@H](C)c2ccc(CN3Cc4ccc(OCC5CC5(F)F)cc4C(O)C3)cc2)s1 (stereo partly shown) [Example 2.035]
18,22 nM,CCC(=O)N[C@@H](C)c1ccc(CN2Cc3ccc(OCC4CC4)cc3C(F)C2)cc1 (stereo partly shown) [Example 3.024]
19,56 nM,CC(=O)Nc1nc(C)c(C(=O)N[C@@H](C)c2ccc(CN3Cc4ccc(OCC5CC5)cc4C(F)C3)cc2)s1 (stereo partly shown) [Example 3.046]
20,47 nM,C[C@H](NC(=O)CO)c1ccc(CN2Cc3ccc(OCC4CC4)cc3C(F)C2)cc1 (stereo partly shown) [Example 3.059]
21,55 nM,C[C@H](NC(=O)C1(N)CC1)c1ccc(CN2Cc3ccc(OCC4CC4)cc3C(F)C2)cc1 (stereo partly shown) [Example 3.055]
22,140 nM,C[C@H](NC(=O)C1CC1)c1ccc(CN2Cc3ccc(OCC4CC4(F)F)cc3C(O)C2)cc1 (stereo partly shown) [Example 1.061]
23,266 nM,C[C@H](NC(=O)CN)c1ccc(CN2Cc3ccc(OCC4CC4)cc3C(F)C2)cc1 (stereo partly shown) [Example 3.058]
24,565 nM,C[C@H](NC(=O)CO)c1ccc(CN2CC(=O)c3cc(OCC4CC4(F)F)ccc3C2)cc1 (stereo partly shown) [Example 2.039]
25,20 nM,CC(=O)N[C@@H](C)c1ccc(CN2Cc3ccc(OCC4CC4)cc3C(F)C2)cc1 (stereo partly shown) [Example 1.093]
26,46 nM,C[C@H](NC(=O)C1(C#N)CC1)c1ccc(CN2Cc3ccc(OCC4CC4(F)F)cc3C(F)C2)cc1 (stereo partly shown) [Example 3.028]
27,59 nM,C[C@H](NC(=O)c1cncs1)c1ccc(CN2Cc3ccc(OCC4CC4)cc3C(F)C2)cc1 (stereo partly shown) [Example 3.048]

# Continued, compound first:
row,Structure (SMILES),IC50
1,C[C@H](NC(=O)C1(O)CC1)c1ccc(CN2CCc3cc(OCC4CC4)ccc3C2)cc1 [Example 2.024],150 nM
2,C[C@H](NC(=O)C1CC(F)(F)C1)c1ccc(CN2CCc3cc(OCC4CC4(F)F)ccc3C2)cc1 (stereo partly shown) [Example 3.021],198 nM
3,CC(=O)N[C@@H](C)c1ccc(CN2Cc3ccc(OC(C)C)cc3C(O)C2)cc1 (stereo partly shown) [Example 1.098],392 nM
4,COc1c(OCC(C)C)ccc2c1CCN(Cc1ccc([C@H](C)NC(C)=O)cc1)C2 [Example 1.068],70 nM
5,CC(O)C(=O)N[C@@H](C)c1ccc(CN2CCc3cc(OCC4CC4)ccc3C2)cc1 (stereo partly shown) [Example 2.021],168 nM
6,C[C@H](NC(=O)C1(C#N)CC1)c1ccc(CN2Cc3ccc(OCC4CC4)cc3C(O)C2)cc1 (stereo partly shown) [Example 3.043],354 nM
7,COc1c(OCCC2CC2)ccc2c1CCN(Cc1ccc([C@H](C)NC(=O)C3CC3)cc1)C2 [Example 1.058],137 nM
8,"C[C@H](NC(=O)CC#N)c1ccc(CN2CCc3cc(OCC4CC4(F)F)ccc3C2)cc1 (stereo partly drawn) [Example 3.001, 2-Cyano-N—((S)-1-{4-[6-(2,2-difluoro-cyclopropylmethoxy)-3,4-dihydro-1H-isoquinolin-2-ylmethyl]-phenyl}-ethyl)-acetamide]",35 nM
9,"COc1cccc2c1CCN(Cc1ccc([C@H](C)NC(C)=O)cc1)C2 [Example 7.001, N-{(S)-1-[4-(5-Methoxy-3,4-dihydro-1H-isoquinolin-2-ylmethyl)-phenyl]-ethyl}-acetamide]",192 nM
10,C[C@H](NC(=O)CC#N)c1ccc(CN2CC(=O)c3cc(OCC4CC4)ccc3C2)cc1 [Example 2.043],428 nM
11,CC(=O)NC(C)c1ccc(CN2CCc3c(ccc(OCCC4CC4)c3Cl)C2)cc1 (stereo not shown) [Example 1.035],61 nM
12,C[C@H](NC(=O)C1CC1)c1ccc(CN2CCc3cc(OCC4CCC4)ccc3C2)cc1 [Example 2.017],38 nM
13,COc1c(OCC(C)C)ccc2c1CCN(Cc1ccc([C@H](C)NC(=O)C3CC3)cc1)C2 [Example 1.057],102 nM
14,CCC(=O)N[C@@H](C)c1ccc(CN2Cc3ccc(OCC4CC4)cc3C(O)C2)cc1 (stereo partly shown) [Example 3.039],136 nM
15,CC(=O)N[C@@H](C)c1ccc(CN2Cc3ccc(OCC4CC4)cc3C(F)(F)C2)cc1 [Example 1.097],38 nM
16,CC(=O)N[C@@H](C)c1ccc(CN2CCc3c(cccc3C(F)(F)F)C2)cc1 [Example 7.002],104 nM
17,C[C@H](NC(=O)C1CC1)c1ccc(CN2CCc3cc(OCCC4CC4)ccc3C2)cc1 [Example 2.018],47 nM

row,Structure (SMILES),IC50
1,C[C@H](NC(=O)c1cncs1)c1ccc(CN2CCc3c(Br)cccc3C2)cc1 [Example 2.010],179 nM
2,CC(=O)N[C@@H](C)c1ccc(CN2CC(=O)c3cc(OCC4CC4)ccc3C2)cc1 [Example 1.090],65 nM
3,C[C@H](NC(=O)C1(C)CC1)c1ccc(CN2CCc3cc(OCC4CC4(F)F)ccc3C2)cc1 (stereo partly shown) [Example 3.015],24 nM
4,"CC(=O)NC(C)c1ccc(CN2CCc3cc(C(F)(F)F)ccc3C2)cc1 (stereo not shown) [Example 1.001, N-{1-[4-(6-Trifluoromethyl-3,4-dihydro-1H-isoquinolin-2-ylmethyl)-phenyl]-ethyl}-acetamide]",293 nM
5,CC(=O)N[C@@H](C)c1ccc(CN2CCc3c(Br)cccc3C2)cc1 [Example 7.004],148 nM
6,COC1CN(Cc2ccc([C@H](C)NC(C)=O)cc2)Cc2ccc(OCC3CC3)cc21 (stereo partly shown) [Example 1.094],296 nM
7,CC(=O)N[C@@H](C)c1ccc(CN2CCc3cc(OCC4CC4)ccc3C2)cc1 [Example 1.088],12 nM
8,COc1c(OCC2CC2)ccc2c1CCN(Cc1ccc(C(C)NC(C)=O)cc1)C2 (stereo not shown) [Example 1.023],133 nM
9,CCC(=O)N[C@@H](C)c1ccc(CN2CCc3c(cccc3OC3CCC3)C2)cc1 [Example 2.013],166 nM
10,CC(=O)NC(C)c1ccc(CN2CCc3cc(OCC(F)F)ccc3C2)cc1 (stereo not shown) [Example 1.010],614 nM
11,C[C@H](NC(=O)[C@H]1CCC(=O)N1)c1ccc(CN2Cc3ccc(OCC4CC4)cc3C(F)C2)cc1 (stereo partly shown) [Example 3.053],213 nM
12,COc1cccc2c1CCN(Cc1ccc([C@H](C)NC(=O)c3cn[nH]c3)cc1)C2 [Example 2.004],184 nM
13,C[C@H](NC(=O)C1CC1)c1ccc(CN2CCc3cc(OCC4CC4)ccc3C2)cc1 [Example 1.042],65 nM
14,CC(=O)NC(C)c1ccc(CN2CCc3cc(Br)ccc3C2)cc1 (stereo not shown) [Example 1.003],265 nM
15,C[C@H](NC(=O)CC#N)c1ccc(CN2Cc3ccc(OCC4CC4)cc3C(F)C2)cc1 (stereo partly shown) [Example 3.026],49 nM
16,CC(=O)NC(C)c1ccc(CN2CCc3cc(OCC4CC(F)(F)C4)ccc3C2)cc1 (stereo not shown) [Example 1.015],47 nM
17,CC(=O)NC(C)c1ccc(CN2CCc3cc(OCC(C)C)ccc3C2)cc1 (stereo not shown) [Example 1.009],102 nM
